Data published in patent US12492194B2, “HPK1 inhibitors” (Janssen Pharmaceutica NV, priority 2019, dated 2025).

Columns and labels:
full-length human Hpk1 = biological target: T1, full-length human Hpk1 (Homo sapiens, UniProt Q92918); experiment: HPK1 kinase assay (ADP Glo Kinase Assay); assay type: biochemical; conditions: full-length human GST-Hpk1, ADP Glo, 75 μM ATP; read-out: Hpk1 biochemical (pIC50) (converted)
T1 construct: A recombinant fusion protein consisting of full-length human Hpk1; GST (N)
Experimental: Pharmacological Part HPK1 Kinase Assay
A recombinant fusion protein consisting of full-length human Hpk1 with an N-terminal Glutatione S-transferase (GST) tag was produced in a baculovirus/insect cell expression system. GST-Hpk1 protein was purified from cell lysates by glutathione sepharose affinity chromatography. Kinase inhibition was determined using the ADP Glo™ Kinase Assay kit (Promega, V9101). Test compounds were prepared by serial dilution in dimethyl sulfoxide (DMSO) and 0.1 μl of each dilution was spotted onto a 384-well white Proxiplate (Perkin Elmer, 6008289). 8 μl of kinase assay buffer (40 mM Tris pH 7.5, 2 mM dithiothreitol (DTT), 0.05% Bovine Serum Albumin, 5 mM MgCl2) containing Hpk1 protein was transferred to each well and incubated for 30-45 minutes at room temperature. The enzymatic reaction was started by adding 2 μl of kinase assay buffer containing 75 μM ATP. After 120 minutes, the reaction was stopped by adding 3 μl of ADP Glo™ reagent (Promega, V9101) and incubating 45 minutes at room temperature.

Hpk1 = Hpk1 (Homo sapiens, UniProt Q92918); experiment: SLP76 phosphorylation assay (SLP76 pS376 in lysates of HEK293 cells engineered to express Hpk1 and SLP76); assay type: cell-based; conditions: HEK293 cells expressing Hpk1 and SLP76, 4 hours incubation; read-out: pSLP76 (HEK293) (pIC50) (converted)
Experimental: SLP76 Phosphorylation Assay
Hpk1 inhibition in cells was determined by detection of SLP76 phosphorylation at S376 in lysates from HEK293 cells engineered to express Hpk1 and SLP76. Serial dilutions of test compounds were prepared in cell culture medium and 20 μl was transferred into each well of a 96-well plate containing HEK293 cells in 180 μl of culture medium. After incubation for 4 hours at 37° C./5% CO2, the culture medium was removed, plates were put on ice and cells washed with cold Minimal Essential Medium before lysing in 90 μl of cold Mammalian Protein Extraction Reagent (Thermo Scientific, 78501) for 30 minutes on ice. The cell lysates were transferred to another 96-well plate, centrifuged 10 minutes at 3000 rcf (4° C.) and 30 μl transferred to a 96-well High-bind plate (MSD, L15XB-3). After coating overnight at 4° C., the cell lysate was removed, wells were washed with base buffer (TBS, 0.2% Tween-20), and blocking solution (base buffer containing 3% MSD blocker A) was added to each well for 1 hour at room temperature. The blocking solution was removed, the wells were washed with base buffer, and detection antibody (SLP76 pS376) was added in 25 μl base buffer containing 1% MSD blocker A to each well. After a 2 h incubation at room temperature, the detection antibody was removed, wells were washed four times with base buffer, 25 μl SULFO-TAG labeled goat anti-rabbit secondary antibody (MSD, R32AB-1) in base buffer containing 1% MSD blocker A was added to each well and left for 1 hour at room temperature. Wells were washed 4 times with base buffer, 150 μl Read Buffer T was added to each well, and the plates were read in a Mesoscale plate reader (MSD). IC50 values were determined by curve-fitting the electrochemiluminescent signals obtained from the lysates of HEK293 cells expressing Hpk1 and SLP76 treated with test compounds at various concentrations minus the signal obtained from HEK293 cells expressing SLP76 only.

T1 sequence (Q92918 whole entry, the tested form may be a part): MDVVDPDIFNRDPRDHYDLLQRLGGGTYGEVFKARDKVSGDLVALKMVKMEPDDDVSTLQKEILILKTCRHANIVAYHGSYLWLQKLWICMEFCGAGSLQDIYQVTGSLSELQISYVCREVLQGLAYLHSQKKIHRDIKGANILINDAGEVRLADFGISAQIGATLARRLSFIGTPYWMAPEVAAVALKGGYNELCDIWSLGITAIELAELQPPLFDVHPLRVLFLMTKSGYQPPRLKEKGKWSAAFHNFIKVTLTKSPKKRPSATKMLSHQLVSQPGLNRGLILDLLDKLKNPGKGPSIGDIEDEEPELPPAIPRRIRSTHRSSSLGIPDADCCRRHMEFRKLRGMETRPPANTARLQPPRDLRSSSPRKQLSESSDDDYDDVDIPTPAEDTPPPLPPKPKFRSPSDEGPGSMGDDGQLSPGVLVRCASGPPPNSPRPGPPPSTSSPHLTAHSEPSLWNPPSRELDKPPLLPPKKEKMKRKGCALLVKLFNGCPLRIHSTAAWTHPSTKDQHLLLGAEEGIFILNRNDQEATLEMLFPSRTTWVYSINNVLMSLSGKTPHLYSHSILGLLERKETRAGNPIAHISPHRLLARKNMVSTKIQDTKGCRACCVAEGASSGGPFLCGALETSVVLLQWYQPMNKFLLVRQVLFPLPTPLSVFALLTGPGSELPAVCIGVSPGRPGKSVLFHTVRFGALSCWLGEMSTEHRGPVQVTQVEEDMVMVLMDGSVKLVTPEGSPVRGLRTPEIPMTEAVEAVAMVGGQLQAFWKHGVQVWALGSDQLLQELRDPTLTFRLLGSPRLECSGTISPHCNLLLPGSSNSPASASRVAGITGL
Sequence of Hpk1 (Q92918 whole entry): as the sequence (Q92918 whole entry, the tested form may be a part) above

| SMILES | IC50 (full-length human Hpk1) | IC50 (Hpk1) |
| --- | --- | --- |
| C[C@H]1CCN[C@@H]1c1cc(-c2cnc(N)c(-c3ccncc3)c2)ccc1C1CCOCC1 (racemic) [Co. 9] | 42.7 nM | 2140 nM |
| C[C@@H]1CCN[C@@H]1c1cc(-c2cnc(N)c(-c3ccncc3)c2)ccc1C1CCOCC1 (racemic) [Co. 10] | 6.61 nM | 282 nM |
| Nc1ncc(-c2ccc(C3CCOCC3)c([C@@H]3CC4(CC4)CN3)c2)cc1-c1ccnc(F)c1 (single isomer, unassigned) [Co. 5a] | 10.2 nM | 776 nM |
| Nc1ncc(-c2ccc(C3CCOCC3)c([C@@H]3CC4(CC4)CN3)c2)cc1-c1ccncc1 (single isomer, unassigned) [Co. 8a] | 6.31 nM | 347 nM |
| Nc1ncc(-c2ccc(C3CCOCC3)c([C@H]3CC4(CC4)CN3)c2)cc1-c1ccncc1 (single isomer, unassigned) [Co. 8b] | 135 nM | 6920 nM |
| Nc1ncc(-c2ccc(C3CCOCC3)c([C@@H]3C[S@+]([O-])CCN3)c2)cc1-c1ccnc(F)c1 (single isomer, unassigned) [Co. 15b] | 200 nM | > 10000 nM |
| Nc1ncc(-c2ccc(C3CCOCC3)c([C@@H]3C[S@@+]([O-])CCN3)c2)cc1-c1ccnc(F)c1 (single isomer, unassigned) [Co. 15c] | 631 nM | > 10000 nM |
| Nc1ncc(-c2ccc(C3CCOCC3)c([C@H]3C[S@+]([O-])CCN3)c2)cc1-c1ccnc(F)c1 (single isomer, unassigned) [Co. 15d] | 6920 nM | > 10000 nM |
| Nc1ncc(-c2ccc(C3CCOCC3)c([C@H]3CC(F)(F)CN3)c2)cc1-c1ccnc(F)c1 (single isomer, unassigned) [Co. 58] | 8710 nM | > 10000 nM |
| Nc1ncc(-c2ccc(C3CCOCC3)c([C@@H]3CC(F)(F)CN3)c2)cc1-c1ccnc(F)c1 (single isomer, unassigned) [Co. 59] | 77.6 nM | 5620 nM |
| C[C@H]1COC[C@@H](c2cc(-c3cnc(N)c(-c4ccncc4)c3)ccc2C2CCOCC2)N1 (single isomer, unassigned) [Co. 83a] | 44.7 nM | 1350 nM |
| C[C@@H]1COC[C@H](c2cc(-c3cnc(N)c(-c4ccncc4)c3)ccc2C2CCOCC2)N1 (single isomer, unassigned) [Co. 83b] | 5750 nM | – |
| Nc1ncc(-c2ccc(C3CCOCC3)c([C@@H]3COCCCN3)c2)cc1-c1ccncc1 (single isomer, unassigned) [Co. 93a] | 162 nM | 4570 nM |
| Nc1ncc(-c2ccc(C3CCOCC3)c([C@H]3COCCCN3)c2)cc1-c1ccncc1 (single isomer, unassigned) [Co. 93b] | 18.6 nM | 1230 nM |
| Nc1ncc(-c2ccc([C@H]3CCOC3)c([C@@H]3CCCN3)c2)cc1-c1ccnc(F)c1 (single isomer, unassigned) [Co. 101] | 3.72 nM | 692 nM |
| Nc1ncc(-c2ccc(C3CCOCC3)c([C@@H]3CSCCN3)c2)cc1-c1ccnc(F)c1 (single isomer, unassigned) [Co. 103a] | 7.76 nM | 1950 nM |
| Nc1ncc(-c2ccc(C3CCOCC3)c([C@H]3CSCCN3)c2)cc1-c1ccnc(F)c1 (single isomer, unassigned) [Co. 103b] | 603 nM | > 10000 nM |
| Nc1ncc(-c2ccc(C3CCOCC3)c([C@H]3CC4(CC4)CN3)c2)cc1-c1ccnc(F)c1 (single isomer, unassigned) [Compound 5b] | 912 nM | – |
| Nc1ncc(-c2ccc(C3CCOCC3)c([C@H]3C[S@@+]([O-])CCN3)c2)cc1-c1ccnc(F)c1 (single isomer, unassigned) [Compound 15a] | 9330 nM | > 10000 nM |
| Nc1ncc(-c2ccc(C3CCOCC3)c([C@@H]3CCCN3)c2)cc1-c1ccnc(F)c1 [Co. 1] | 7.59 nM | 380 nM |
| Nc1ncc(-c2ccc(N3CCOCC3)c([C@@H]3CCCN3)c2)cc1-c1ccnc(F)c1 [Co. 2] | 41.7 nM | 871 nM |
| Nc1ncc(-c2ccc(C3CCOCC3)c([C@@H]3CCCN3)c2)cc1-c1cncnc1 [Co. 3] | 53.7 nM | 5620 nM |
| Nc1ncc(-c2ccc(C3CCOCC3)c([C@@H]3CCCN3)c2)cc1-c1cccnc1 [Co. 4] | 42.7 nM | 3720 nM |
| Nc1ncc(-c2ccc(N3CCOCC3)c(C3CCCN3)n2)cc1-c1ccncc1 (stereo not shown) [Co. 11] | 35.5 nM | 5010 nM |
| Nc1ncc(-c2cnc(N3CCOCC3)c(C3CCCN3)c2)cc1-c1ccncc1 (stereo not shown) [Co. 12] | 112 nM | 7410 nM |

| SMILES | IC50 (full-length human Hpk1) | IC50 (Hpk1) |
| --- | --- | --- |
| Nc1ncc(-c2ccc(C3CCOCC3)c(-c3cnc[nH]3)c2)cc1-c1ccncc1 [Co. 13] | 186 nM | 8910 nM |
| Nc1ncc(-c2ccc(N3CCOCC3)c(-c3nnc[nH]3)c2)cc1-c1ccncc1 [Co. 14] | 832 nM | > 10000 nM |
| Nc1ncc(-c2ccc(C3CCOCC3)c(-c3cnn[nH]3)c2)cc1-c1ccncc1 [Co. 15] | 575 nM | > 10000 nM |
| Nc1ncc(-c2ccc(C3CCOCC3)c([C@@H]3CCCN3)c2)cc1-c1ccnc(Cl)c1 [Co. 17] | 15.8 nM | 1580 nM |
| Nc1ncc(-c2ccc(C3CCOCC3)c([C@@H]3CCCN3)c2)cc1-c1cnn2c1CCCC2 [Co. 18] | 17.8 nM | 1550 nM |
| CS(=O)(=O)n1cc(-c2cc(-c3ccc(C4CCOCC4)c([C@@H]4CCCN4)c3)cnc2N)cn1 [Co. 19] | 4.27 nM | 977 nM |
| Nc1ncc(-c2ccc(C3CCOCC3)c([C@@H]3CCCN3)c2)cc1-c1nccs1 [Co. 20] | 3.16 nM | 170 nM |
| Nc1ncc(-c2ccc(C3CCOCC3)c([C@@H]3CCCN3)c2)cc1-c1cnn(CCO)c1 [Co. 21] | 18.6 nM | 6920 nM |
| CC(C)n1cc(-c2cc(-c3ccc(C4CCOCC4)c([C@@H]4CCCN4)c3)cnc2N)cn1 [Co. 22] | 2.75 nM | 339 nM |
| Nc1ncc(-c2ccc(C3CCOCC3)c([C@@H]3CCCN3)c2)cc1-c1cn[nH]c1 [Co. 23] | 1.02 nM | 302 nM |
| COc1cnccc1-c1cc(-c2ccc(C3CCOCC3)c([C@@H]3CCCN3)c2)cnc1N [Co. 24] | 13.2 nM | 891 nM |
| Nc1ncc(-c2ccc(C3CCOCC3)c([C@@H]3CCCN3)c2)cc1-c1ccncc1 [Co. 25] | 9.77 nM | 427 nM |
| Nc1ncc(-c2ccc(C3CCOCC3)c([C@H]3CCCN3)c2)cc1-c1ccncc1 [Co. 25b] | 955 nM | > 10000 nM |
| Nc1ncc(-c2ccc(C3CCOCC3)c([C@@H]3CCCN3)c2)cc1-c1ccncn1 [Co. 26] | 2.04 nM | 245 nM |
| Nc1ncc(-c2ccc(C3CCOCC3)c([C@@H]3CCCN3)c2)cc1-c1ccnc(F)c1F [Co. 27] | 5.75 nM | 240 nM |
| Nc1ncc(-c2ccc(C3CCOCC3)c([C@@H]3CCCN3)c2)cc1-c1ccncc1F [Co. 28] | 10.2 nM | 316 nM |
| CC(C)(C#N)c1cc(-c2cc(-c3ccc(C4CCOCC4)c([C@@H]4CCCN4)c3)cnc2N)ccn1 [Co. 29] | 38 nM | 6030 nM |
| Nc1ncc(-c2ccc(C3CCOCC3)c([C@@H]3CCCN3)c2)cc1-c1ccncc1Cl [Co. 30] | 28.2 nM | 490 nM |
| Nc1ncc(-c2ccc(C3CCOCC3)c([C@@H]3CCCN3)c2)cc1-c1cc(F)ncc1F [Co. 31] | 20.4 nM | 1050 nM |
| Nc1ncc(-c2ccc(C3CCOCC3)c([C@@H]3CCCN3)c2)cc1-c1cc(F)ncc1Cl [Co. 32] | 28.2 nM | 1860 nM |
| Nc1ncc(-c2ccc(C3CCOCC3)c([C@@H]3CCCN3)c2)cc1-c1ccnnc1 [Co. 33] | 14.5 nM | 2290 nM |
| Nc1ncc(-c2ccc(C3CCOCC3)c([C@@H]3CCCN3)c2)cc1-c1ccnc(C(F)F)c1 [Co. 34] | 17.4 nM | 1820 nM |
| Cc1cnccc1-c1cc(-c2ccc(C3CCOCC3)c(CN(C)C)c2)cnc1N [Co. 69] | 316 nM | – |
| Nc1ncc(-c2ccc(C3CCOCC3)c(CN3CCC(F)(F)C3)c2)cc1-c1ccncc1 [Co. 107] | 832 nM | – |
